Test results reported in patent US12275953B2, “Methods for screening host cells expressing target proteins” (Industrial Technology Research Institute, priority 2020, dated 2025).
Where two headings read alike, the source gives them in different places.

Legend:
[1] = tested on: CHOK1 cell lines Fth1-WT and Fth1-KO transfected with pCDNA3.1-CMV-cgFth1-p2A-EGFP; assay: Screening efficiency of transfected cells under iron ion-induced ferroptosis (Celigo Image Cytometer); type: cell-based, Chinese hamster
Protocol: After 24 hours of adherent culture in F12 medium (Ham's F-12 Nutrient Mix, Gibco) containing 10% FBS, the transfection of vector (pCDNA3.1-CMV-cgFth1-p2A-EGFP) was carried out with Lipofectamine 3000 (Thermo Fisher Scientific Inc.) to promote the overexpression of FTH1 gene. 24 hours after the DNA transfection of the vectors, 125 μM ferrous sulfate (FeSO4) was added to the cell culture broth, and at the same time different doses of ferroptosis inducers FINO2 (0 μM to 20 μM) were added to induce ferroptosis. After 3 days (72 hours) of action, the Celigo Image Cytometer (Nexcelom) was used to analyze the cell morphology, viability, cell count, fluorescent cell count, and fluorescence quantification, thereby estimating the screening efficiency.

[2] = tested on: HEK293T cell line; conditions: 125 μM FeSO4, 72 hours, cells transfected with pCDNA3.1-CMV-cgFth1-p2A-EGFP vs Mock vector
Protocol: (§1) After 24 hours of adherent culture in F12 medium (Ham's F-12 Nutrient Mix, Gibco) containing 10% FBS, the transfection of vectors (pCDNA3.1-CMV-cgFth1-p2A-EGFP and pCDNA3.1-CMV-p2A-EGFP_Mock, which served as a blank control group) were carried out with Lipofectamine 3000 (Thermo Fisher Scientific Inc.) to promote the overexpression of FTH1 gene. 24 hours after the DNA transfection of the vectors, 125 μM ferrous sulfate (FeSO4) was added to the cell culture broth, and at the same time different doses of ferroptosis inducers FINO2 (0 μM to 20 μM) were added to induce ferroptosis. After 3 days (72 hours) of action, the Celigo Image Cytometer (Nexcelom) was used to analyze the fluorescence cell count and fluorescence quantification, thereby estimating the screening efficiency.

[3] = tested on: VERO cell line; conditions: 125 μM FeSO4, 72 hours, cells transfected with pCDNA3.1-CMV-cgFth1-p2A-EGFP vs Mock vector
Protocol: as §1

[4] = tested on: CHOK1 cell lines Fth1_WT and Fth1_KO
[5] = tested on: CHOK1 cell lines Fth1_WT and Fth1_KO; assay: Cytotoxicity test of screening medium formulations (AlamarBlue cell viability); conditions: FINO2 and fatty acid PA together, without the addition of iron ions FeSO4
[6] = tested on: SKBR3 breast cancer cells rich in HER2 antigen; assay: ADCC biological activity reporter gene assay (Jurkat-hFcγRIIIa-NFAT effector cells, luciferase); type: cell-based; conditions: compared with the validated purified Anti-HER2 IgG1 (h4D5) recombinant antibody protein; 24 hours of reaction
Protocol: Jurkat-hFcγRIIIa-NFAT gene transgenic cells was used as effector cells and SKBR3 breast cancer cells rich in HER2 antigen was used as target cells in ADCC biological activity reporter gene detection system (Promega, #G9790).
First, 100 μl of SKBR3 cells with a cell density of 10^5/ml were added to the 96-well culture plate, placed at 37° C. for overnight culture to allow the cells to adhere and grow, the supernatant was removed the next day, and 25 μl of serially diluted recombinant antibodies prepared in […] medium containing 0.5% fetal bovine serum were added. Next, 25 μl of lurkat-hFcγRIIIa-NFAT effector cells with a cell density of 6×10^6/ml were added.

In the case of CC1(CCO)CC2(CCC(C(C)(C)C)CC2)OO1 (centres unmarked) [FINO2], the “relation of increased dose to overall cell viability” value ([1]; FINO2 0 μM to 20 μM with 125 μM FeSO4, 72 hours) is reported as “negatively correlated with overall cell viability”, the cell screening rate ([1]; high dose of ferroptosis inducer (>15 μM), 125 μM FeSO4, 72 hours) is reported as 100% and the “concentration producing significant screening effects” value [2] is reported as 1.25 µM. The “concentration producing significant screening effects” value [3] was 5 µM and the cytotoxicity [4] was “did not cause cytotoxicity”.

For CCCCCCCCCCCCCCCC(=O)O [PA, Palmitic acid], the cytotoxicity [5] was “did not cause cytotoxicity”.

In the case of “V2: Anti-HER2 IgG1 (h4D5) recombinant antibody produced by expression vector pBudCE4.1-CMV-GOI1-SV40-cgFth1-EF1α-GOI2”, the ADCC effect [6] is reported as “could obviously induce ADCC”.

For “V3: Anti-HER2 IgG1 (h4D5) recombinant antibody from cell line C8, vector pcDNA3.1-CMV-GOI1-furin-p2A-GOI2-IRES-cgFth1, without adding iron ions”, the ADCC effect [6] was “could obviously induce ADCC”.
